Holding throughout (format): in vivo
The test system of test [1] is Setaria viridis. As to the kind of experiment: Post-emergence herbicidal effect. The settings on record: visual assessment after about 3 weeks. In short, it runs like this:
(§1)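 Greenhouse plants in sandy loam were sprayed at the one-leaf stage, 2 to 3 weeks after sowing, with WP or EC formulations at 600 to 800 l/ha water with 0.2% wetting agent. After about 3 weeks, action was scored visually as percent versus untreated controls (100% = plants died, 0% = like control).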

Test [2] has as its system Polygonum convolvulus. As to the kind of experiment: Post-emergence herbicidal effect. The settings on record: 80 g/ha, visual assessment after about 3 weeks. In short, it runs like this:
as §1

The subject of test [3] is Echinochloa crus-galli. As to the kind of experiment: Post-emergence herbicidal effect. The settings on record: visual assessment after about 3 weeks. A digest of the protocol:
as §1

In test [4] the test system is Alopecurus myosuroides. As to the kind of experiment: Post-emergence herbicidal effect. The settings on record: visual assessment after about 3 weeks. A digest of the protocol:
as §1

The subject of test [5] is Avena fatua. As to the kind of experiment: Post-emergence herbicidal effect. The settings on record: 80 g/ha, visual assessment after about 3 weeks. A digest of the protocol:
as §1

Test [6] concerns Lolium multiflorum. As to the kind of experiment: Post-emergence herbicidal effect. The settings on record: visual assessment after about 3 weeks. In short, it runs like this:
as §1

The subject of test [7] is Setaria viridis. As to the kind of experiment: Pre-emergence herbicidal effect. The settings on record: visual score after 3 weeks. In short, it runs like this:
(§2)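 Pre-emergence, soil-surface spray. Sandy loam, seeds covered; WP/EC in water, 600–800 l/ha, 0.2% wetting agent. Greenhouse, 3 wk; visual % activity vs untreated (0 = control-like, 100 = dead).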

Test [8] deals with Echinochloa crus-galli. As to the kind of experiment: Pre-emergence herbicidal effect. The settings on record: visual score after 3 weeks. A digest of the protocol: as §2
Test [9] concerns Alopecurus myosuroides. Description: Pre-emergence herbicidal effect. The settings on record: visual score after 3 weeks. In short, it runs like this:
as §2

Test [10] concerns Lolium multiflorum. Description: Pre-emergence herbicidal effect. The settings on record: visual score after 3 weeks. A digest of the protocol:
as §2

In test [11] the test system is Veronica persica. As to the kind of experiment: Pre-emergence herbicidal effect. The settings on record: 320 g/ha, visual score after 3 weeks. In short, it runs like this: as §2
Test [12] deals with Cyperus esculentus. Description: Pre-emergence herbicidal effect. The settings on record: visual score after 3 weeks. In short, it runs like this: as §2
Test [13] has as its system Avena fatua. As to the kind of experiment: Pre-emergence herbicidal effect. The settings on record: visual score after 3 weeks. In short, it runs like this: as §2
Test [14] deals with Amaranthus retroflexus. Description: Pre-emergence herbicidal effect. The settings on record: 320 g/ha, visual score after 3 weeks. A digest of the protocol:
as §2

Test [15] deals with Veronica persica. As to the kind of experiment: Post-emergence herbicidal effect. The settings on record: 80 g/ha, visual assessment after about 3 weeks. In short, it runs like this: as §1

This note sets out measurements from patent publication US10899709B2, “Novel-alkynyl-substituted 3-phenylpyrrolidine-2,4-diones and use thereof as herbicides” (BAYER CROPSCIENCE AKTIENGESELLSCHAFT, priority 2015, dated 2021).

For `CCc1cc(C#CC2CC2)cc(C)c1C1=C(O)C2(CCC(COC)CC2)NC1=O` (stereo not drawn) [Example I-7], the “Post-emergence effectiveness SETVI” value in test [1] (20 g/ha) and in test [1] (80 g/ha) was 100% in each case. In addition, the “Post-emergence effectiveness POLCO” value in [2] is 80%. Further, the “Post-emergence effectiveness ECHCG” value in [3] (20 g/ha) and in test [3] (80 g/ha) was 100% each time. Moreover, the “Post-emergence effectiveness ALOMY” value in test [4] (20 g/ha) stood at 90%; in test [4] (80 g/ha) it was 100%. In test [5], the “Post-emergence effectiveness AVEFA” value amounted to 100%. The “Post-emergence effectiveness LOLMU” value in [6] (20 g/ha) stood at 90%; in test [6] (80 g/ha), 100%. Besides, the “Pre-emergence effectiveness SETVI” value in test [7] (80 g/ha) is given as 90%; in [7] (320 g/ha), 100%. The “Pre-emergence effectiveness ECHCG” value in test [8] (80 g/ha) and in [8] (320 g/ha) was 100% throughout. For the same compound, the “Pre-emergence effectiveness ALOMY” value in test [9] (80 g/ha) is 80%; in test [9] (320 g/ha) it was 100%. The “Pre-emergence effectiveness LOLMU” value in test [10] (80 g/ha) and in [10] (320 g/ha) was 100% in each case.
Regarding `CC#Cc1cc(CC)c(C2=C(OC(=O)C(C)C)C3(CCC(CCOC)CC3)NC2=O)c(CC)c1` (stereo not drawn) [Example Ia-5], the “Pre-emergence effectiveness SETVI” value in [7] (80 g/ha) and in [7] (320 g/ha) was 100% in each case. Also, the “Pre-emergence effectiveness ECHCG” value in [8] (80 g/ha) and in test [8] (320 g/ha) was 100% in each case. Besides, the “Pre-emergence effectiveness VERPE” value in test [11] is 100%. The “Pre-emergence effectiveness CYPES” value in test [12] (80 g/ha) and in test [12] (320 g/ha) was 100% each time. Also, the “Pre-emergence effectiveness ALOMY” value in test [9] (80 g/ha) and in test [9] (320 g/ha) was 100% each time. Also, the “Pre-emergence effectiveness AVEFA” value is 80% in test [13] (80 g/ha) and 100% in test [13] (320 g/ha). In addition, in test [14], the “Pre-emergence effectiveness AMARE” value was 100%. The “Pre-emergence effectiveness LOLMU” value in test [10] (80 g/ha) and in test [10] (320 g/ha) was 100% each time.
`CC#Cc1cc(C)c(C2=C(OC(=O)C(C)C)C3(CCC(COC)CC3)NC2=O)c(CC)c1` (stereo not drawn) [Ia-3]: the “Post-emergence effectiveness SETVI” value in test [1] (20 g/ha) is reported as 90%; in [1] (80 g/ha), 100%. For the same compound, the “Post-emergence effectiveness ECHCG” value in test [3] (20 g/ha) was 90%; in test [3] (80 g/ha) it was 100%. Further, in test [15], the “Post-emergence action VERPE” value came to 90%. Besides, the figures for the “Post-emergence effectiveness ALOMY” value in test [4] (20 g/ha) and in test [4] (80 g/ha) were 90% and 100%, respectively. Moreover, the “Post-emergence effectiveness LOLMU” value in [6] (80 g/ha) is 100%. The “Pre-emergence effectiveness SETVI” value in [7] (80 g/ha) and in test [7] (320 g/ha) was 100% throughout. In addition, the “Pre-emergence effectiveness ECHCG” value in test [8] (80 g/ha) and in test [8] (320 g/ha) was 100% throughout. Moreover, in [11], the “Pre-emergence effectiveness VERPE” value turned out to be 90%. The “Pre-emergence effectiveness ALOMY” value was found to be 90% in test [9] (80 g/ha) and 100% in [9] (320 g/ha). Also, the figures for the “Pre-emergence effectiveness AVEFA” value in test [13] (80 g/ha) and in [13] (320 g/ha) were 80% and 90%, respectively. For the same compound, the “Pre-emergence effectiveness LOLMU” value in test [10] (80 g/ha) and in test [10] (320 g/ha) was 100% each time.
